Measurements as given in patent publication US20150313913A1, “POSITIVE ALLOSTERIC MODULATORS OF THE GABA-A RECEPTOR IN THE TREATMENT OF AUTISM” (UNIVERSITY OF WASHINGTON THROUGH ITS CENTER FOR …, priority 2013, published 2015).
“Also recorded” adds a separate entry of the source.

Experiments:
C57BL/6J mice [1] = assay: Three-chamber social interaction test; assay type: in vivo; settings: for social interaction preference, Pre/CLZ/Post protocol: low dose (0.05 mg/kg), 0.05 mg/kg
Source text: The mouse was allowed to freely explore each chamber.

BTBR mice = assay: Three-chamber social interaction test; settings: for social interaction deficit: 0.05 mg/kg (low dose) 30 min before test; for effect on social interaction at doses above the maximally effective dose: higher doses; for dose of maximal effect on social interaction: i.p., 30 min before test; for social interaction (time with stranger mouse, close interaction), dose series: single i.p. injection 30 min before test, low/increasing doses
Description: In the three-chamber test, a test mouse is placed in the center chamber, and the preference of the test mouse for interaction with an inanimate object (a small empty cage) in the left chamber vs. a stranger mouse in an identical cage in the right chamber using a digital camera and quantitative video-tracking analysis.
(§1) The test was performed as described previously (Han et al., 2012) with minor modifications. The threechamber apparatus is a non-transparent Plexiglas box (30×60 cm) with two transparent partitions that make left, center, and right chambers (30×20 cm). In the first 10-min session, a test mouse was placed in the center of the empty three-chamber unit to habituate the test mouse. The mouse was allowed to freely explore each chamber. In the second 10-min session, an age- and gender-matched same strain mouse that had never been exposed to the test mouse, was placed in one of the two wire cages. The empty wire cage as an inanimate object cue was placed on the other side. Then, the test mouse was placed again in the center, and allowed to freely explore the chamber for 10 min. Time spent in each chamber, and time spent within a 5 cm radius proximal to each wire cage, as a close interaction were measured by the videotracking software (EthoVision XT 8.5, Noldus Technology). All data shown are means±s.e.m. and analyzed using two-way ANOVA with Bonferroni's post hoc analysis and one-way ANOVA with Tukey's post hoc analysis.
(§2) L-838,417, and DMCM (Sigma), dissolved in 100% DMSO (sterile, Sigma) was diluted in PBS (the final concentration of DMSO was ranged from 0.005% to 0.1%). Drugs were administered by an intraperitoneal injection in a volume of […] 30 min before the behavioral tests.

C57BL/6J mice [2] = assay: Context-dependent fear conditioning test; assay type: in vivo
Source text: The contextual fear-conditioning chamber was a square arena (25×25 cm) with clear PLEXIGLAS™ walls and a metal grid floor connected to a circuit board that delivered shocks to the metal grid (COULBOURN INSTRUMENTS™). An analog camera was attached on top of the chamber. The camera and the circuit board were connected to a personal computer, and its software (FREEZE FRAME™ 2.0, ACTIMETRICS™) controlled the circuit and recorded the data. The chamber was cleaned with 70% ethanol and wiped with paper towels before each session. In the habituation session, a test mouse was placed in the chamber and allowed to explore for 2 min^66-69. Immediately after habituation, the test mouse received a single mild foot shock (2 s, 0.5 mA). After staying in the chamber one more min, the mouse was removed from the chamber. For the 30-min short-term memory test, the mouse was returned to the context 30 min after the end of the training session. For 24-hr long-term memory test, the mouse was returned to the context 24 hr after the training session. The movement of mice was also recorded by a USB webcam (LIFECAM™ HD-6000, MICROSOFT™) and PC-based video capture software (WINAVI™ Video Capture, ZJ MEDIA DIGITAL TECHNOLOGY™) for 2 min. The recorded video file was further analyzed by off-line video tracking software (ETHOVISION™ XT 7.0, NOLDUS TECHNOLOGY™). The freezing scores were calculated by dividing the test session into 1 min bouts and averaging together all 2 min for each animal. All data shown.
Freezing behavior is defined as the period during which the velocity of the test mouse is less than 1.75 cm/s, and non-freezing behavior is defined as the period during which the velocity of the mouse is greater than 2 cm/s.

GABA-A receptor = settings: cited from earlier work
[3] = test system: mouse genetic models of human Dravet syndrome and idiopathic autism; assay: Summary: low-dose treatment of mouse models of autism; assay type: in vivo, mice; settings: low doses that do not induce sedative or anxiolytic effects
Source text: The present disclosure describes methods effective in the rescue or amelioration of autism-like behavior, cognitive deficit, and context-dependent spatial memory.
In particular embodiments, these methods comprise the administration of low doses of a benzodiazepine to a human or other mammalian subject in order to rescue autism-like behavior, cognitive deficit, and context-dependent spatial memory. […] At such low doses, the administration of benzodiazepines, such as CLZ, to mammalian subjects will result in improvement of autism-like behavior, cognitive deficit, and context-dependent spatial learning and memory with much lower levels of sedation compared to mammalian subjects who receive typical higher doses of CLZ or other benzodiazepines that are used for treatment of anxiety, insomnia, or seizure.
The present disclosure is also directed to methods of rescuing or ameliorating indicia of Autism Spectrum disorders, autism-like behavior, cognitive deficit, and context-dependent spatial learning and memory in Dravet syndrome or idiopathic autism with α-2,3-specific GABA-A receptor positive allosteric modifiers. Such α-2,3-subunit selective GABA-A receptor positive allosteric modifiers include L838,417.
Therapeutic approaches to treat autistic traits in animal studies or in clinical trials have primarily focused on reducing excitatory neurotransmission in glutamatergic synapses to rebalance E/I ratio in autistic brain (Michalon et al., 2012; Yang et al., 2012). However, autistic-like behaviors in ASD mouse models are only partially reversed by drugs that inhibit excitatory neurotransmission, and these drugs also have unwanted side effects on wild-type mice (Henderson et al., 2012; Michalon et al., 2012; Yang et al., 2012). To overcome these drawbacks, the inventors focused on the opposing side, the GABAergic inhibitory transmission in autistic brain. Their results highlight the potential for therapy of autistic-like behaviors and cognitive deficit in ASD by low-dose treatment with subunit-selective benzodiazepines and other positive allosteric modulators of GABA-A receptors. […] It is possible that the biphasic dose-response relationship of the positive allosteric modulators reflects their actions on receptors containing α2,3 subunits at low doses and on receptors containing α1 subunits at higher doses.

Scn1a+/− mice = assay: Three-chamber social preference test; assay type: in vivo
Source text: The mouse was allowed to freely explore each chamber. […] The recorded video file was further analyzed by off-line video tracking software (ETHOVISION™ XT 7.0). […] All data shown are means±s.e.m. and analyzed using two-way ANOVA with Bonferroni's post hoc analysis and one-way ANOVA with Tukey's post hoc analysis.
Oral administration is specifically contemplated for the methods described herein, and is well known for both benzodiazepines and non-BDZ GABA-A enhancers as described herein.
as §1, §2

Cn1ncnc1COc1nn2c(-c3cc(F)ccc3F)nnc2cc1C(C)(C)C [L-838,417]
social behavior, dose series (C57BL/6J mice [1]; L-838,417 / zolpidem (FIGS. 45I, 45J)): not changed; also recorded: did not change | social interaction deficit (BTBR mice): rescued | social behavior (close interaction) (BTBR mice; 0.5 mg/kg): disappeared | dose at low point of time in the chamber with the inanimate object (BTBR mice; biphasic dose-response): 0.05 mg/kg | effect on social interaction at doses above the maximally effective dose (BTBR mice): lost when the dose increased | effect on social interaction at doses above the maximally effective dose (BTBR mice; listed as L838,417): reduced response | dose of maximal effect on social interaction (BTBR mice): 0.05 mg/kg | time of interaction with the inanimate object (BTBR mice; increasing doses): decrease | total movement during the three-chamber test at high dose (BTBR mice; mouse, in vivo): tended to increase | social interaction (time with stranger mouse, close interaction), dose series (BTBR mice): increased | social interaction (time with stranger mouse, close interaction), dose series (BTBR mice; listed as L818,417): progressively increase | memory of the spatial context (C57BL/6J mice [2]; 0.05 mg/kg L838,417): no effect | Effect at GABA receptor (GABA-A receptor; Table 2, exemplary SS-PAMs): Partial agonist Selective for α2, α3 (and possibly α5) subunits | autistic-like behaviors and cognitive deficit in BTBR mice (summary) [3]: improved | social interactions in three-chamber test (Scn1a+/− mice; low doses, narrow dose range (FIGS. 41N, 41O)): improves social interactions

O=C1CN=C(c2ccccc2Cl)c2cc([N+](=O)[O-])ccc2N1 [Clonazepam]
time of interaction with stranger mouse vs. novel object (C57BL/6J mice [1]; any of the test doses (FIG. 39C)): unaffected | social interactions / close interaction (C57BL/6J mice [1]; clonazepam single injection, 0-0.1 mg/kg): not altered; also recorded: no effect | social interaction preference, Pre/CLZ/Post protocol (C57BL/6J mice [1]): not changed; also recorded: None of these treatments had any significant effect | social interaction preference, Pre/CLZ/Post protocol (C57BL/6J mice [1]; listed as CLZ): does not significantly alter | social interaction deficit (BTBR mice): reversibly rescued; also recorded: improved | social interaction deficit (BTBR mice; listed as CLZ): recover their preference | social interactions on Day 1 of repeated treatment (BTBR mice; 0.05 mg/kg i.p. daily): significantly increased | social interactions after 14 days of repeated treatment (BTBR mice; 0.05 mg/kg i.p. daily for 14 days): fully retained and even increased | sedation / total distance moved during the three-chamber test (BTBR mice; dose range up to 0.5 mg/kg (clonazepam: test doses)): did not cause sedation; also recorded: no sedation | improvement of social deficit: time of interaction with stranger mouse vs. novel object (BTBR mice; dose series (FIG. 39D)): strikingly dose-dependent | increase of time spent in the chamber containing the stranger mouse (BTBR mice; doses from 0.00625 mg/kg to 0.05 mg/kg i.p.): approximately 2.5 fold | effect on social interaction at doses above the maximally effective dose (BTBR mice): not observed; also recorded: lost at higher doses | dose of maximal effect on social interaction (BTBR mice): 0.05 mg/kg | tolerance to rescue of social interaction behavior (BTBR mice; repeated 0.05 mg/kg, 14 days): does not elicit tolerance | social interaction (time with stranger mouse, close interaction), dose series (BTBR mice): rescued; also recorded: increased | cognitive changes in fear conditioning (C57BL/6J mice [2]; clonazepam, any dose (0-0.1 mg/kg)): no cognitive changes | Effect at GABA-A receptor (GABA-A receptor; Table 1, exemplary benzodiazepines): Agonist Long- acting | autistic-like behaviors and cognitive deficit in BTBR mice (summary) [3]: improved | social interaction, 3-chamber social preference test (Scn1a+/− mice; single i.p. 0.0625 mg/kg 30 min before test, listed as CLZ, 0.0625 mg/kg): completely rescued; also recorded: completely restored; also recorded: completely recovered
